Measured values published in patent publication US20050049299A1, “Selective inhibitors of stat-3 activation and uses thereof” (priority 2003, published 2005).

Assays:
[1] = system: RPMI 8226 cells; test: IL-6-induced proliferation of RPMI 8226 cells; format: cell-based, human; settings: serum starved 12 h, IL-6 48 h
Procedure: (§1) FIGS. 7A-B show& that IL-6 induces proliferation of human multiple myeloma cells and curcumin inhibits it. […] Cell proliferation assays were performed as described below. Results are shown as mean (±s.d.) of percent [^3H] thymidine incorporation or percent proliferation by MTT of triplicate cultures compared to the untreated control.
(§2) The antiproliferative effects of curcumin were also monitored by the thymidine incorporation method. For this, 5000 cells in 100 μl medium were cultured in triplicate in 96-well plates in the presence or absence of curcumin for 24 h. Six hours before the completion of experiment, cells were pulse treated with 0.5 μCi [^3H]thymidine, and the uptake of [^3H]thymidine was monitored using a Matrix-9600 β-counter (Packard Instruments, Downers Grove, Ill.).
To reconfirm previous reports (5, 6, 15, 31) that IL-6 induces proliferation of MM cells, U266, RPMI 8226, MM.1 and MM.1R were serum-starved for 12 h and then cultured them in the absence or presence of different concentrations of IL-6 for 48 h.

[2] = system: STAT3 phosphorylation; test: STAT3 phosphorylation in MM.1S and MM.1R cells after TNF, LT or IL-6 (Western blot); format: cell-based, human; settings: IL-6 10 minutes (positive control)
Procedure: The cell proliferation assay was performed as described below. Results are shown as mean (±s.d. indicated by error bar) of percent [^3H] thymidine incorporation of triplicate cultures compared to the untreated control. […] Cells were treated with IL-6 for 10 minutes as a positive control for STAT3 phosphorylation. Thirty micrograms of whole cell extract was were resolved on 7.5% SDS-PAGE, electrotransferred to a nitrocellulose membrane, and probed for phosphorylated-STAT3 (upper panel), stripped, and reprobed for STAT3 (lower panel).
(§3) For detection of STAT proteins, whole-cell extracts were prepared by lysing the curcumin-treated cells in lysis buffer (20 mM Tris, pH 7.4, 250 mM NaCl, 2 mM EDTA, pH 8.0, 0.1% Triton-X100, 0.01 mg/ml aprotinin, 0.005 mg/ml leupeptin, 0.4 mM PMSF, and 4 mM NaVO4). Lysates were then spun at 14000 rpm for 10 min to remove insoluble material, and resolved on a 7.5% gel. After electrophoresis, the proteins were electrotransferred to a nitrocellulose membrane, blocked with 5% nonfat milk, and probed with anti-STAT antibodies (1:1000) overnight at 4° C. The blot was washed, exposed to HRP-conjugated secondary antibodies for 1 h, and finally examined by chemiluminescence (ECL, Amersham Pharmacia Biotech. Arlington Heights, Ill.).
MM.1S and MM.1R cells were serum starved for 12 h and then treated with TNF or lymphotoxin in the serum free medium.

[3] = system: MM.1 cells; test: IL-6-induced proliferation of MM.1 cells; format: cell-based, human; settings: serum starved 12 h, IL-6 48 h
Procedure: as §1
(§4) The antiproliferative effects of curcumin against different multiple myeloma cell lines were determined by the MTT dye uptake method as described earlier (28). Briefly, the cells (5000/well) were incubated in triplicate in a 96-well plate in the presence or absence of indicated test samples in a final volume of 0.1 ml for 24 h at 37° C. […] The OD at 570 nm was measured using a 96-well multiscanner autoreader (Dynatech MR 5000), with the extraction buffer serving as blank. Percent cell viability cell viability was calculated using the following formula: Percent cell viability=(OD of the experiment samples/OD of the control)×100.
as §2, with “For this, 5000 cells in 100 μl medium were cultured in triplicate in 96-well plates in the presence or absence of curcumin for 24 h.” left out, “Ill.). […]” for “Ill.).”
(§5) Whether curcumin suppresses the proliferative effects of IL-6 was determined.

[4] = system: STAT3 phosphorylation; test: IL-6-inducible STAT3 phosphorylation in RPMI 8226 cells (Western blot); format: cell-based, human; settings: IL-6 10 ng/ml
Procedure: FIGS. 3A-C show& that IL-6 induces STAT3 phosphorylation in human multiple myeloma RPMI 8226 cells and curcumin inhibits it. […] U266, RPMI 8226, MM.1S, MM.1R and OCl cells (2×10^6) were lysed, and 30 μg of whole-cell extracts were resolved on 7.5% SDS-PAGE, electrotransferred to a nitrocellulose membrane, and probed for phosphorylated-STAT3 (upper panel) and STAT3 (lower panel). […] Thirty micrograms of whole cell extracts were resolved on 7.5% SDS-PAGE, electrotransferred to a nitrocellulose membrane, and probed for the phosphorylated-STAT3 (upper panel) and stripped and reprobed for STAT3 (middle panel) and β-actin (lower panel).
as §3
Since IL-6 is a growth factor for multiple myeloma and induces STAT3 phosphorylation (5, 6, 15), whether curcumin could inhibit IL-6-induced STAT3 phosphorylation was examined. […] IL-6 induced phosphorylation of STAT3 as early as 5 min and began to decline at 60 minutes (FIG. 3B). RPMI 8226 cells were then incubated with curcumin for different times and examined for IL-6-inducible STAT3 phosphorylation.
Exposure of cells to curcumin for 4 hours was sufficient to completely suppress IL-6-induced STAT3 phosphorylation. Curcumin alone had no effect on STAT3 phosphorylation in these cells (data not shown).

[5] = system: MDA 1986LN, JMAR and MDA 686LN cells; test: IL-6-induced proliferation of human HNSCC cells (thymidine incorporation); format: cell-based; settings: serum starved 12 hrs, IL-6 48 hrs
Procedure: Human head and neck squamous cell carcinoma cells MDA 1986LN, JMAR and MDA 686LN were serum starved for 12 hrs. These cells were then cultured with the indicated concentrations of IL-6 for 48 hrs in serum-free medium. Cell viability was determined by thymidine incorporation method.
The present invention also investigated the effect of IL-6 on the proliferation of human HNSCC cells such as MDA 1986LN, JMAR and MDA 686LN by thymidine incorporation method. These cells were serum starved for 12 hrs and then cultured with different concentrations of IL-6 for 48 hrs in serum-free medium.

[6] = system: U266 cells; test: IL-6-induced proliferation of U266 cells (thymidine incorporation, MTT); format: cell-based, human; settings: serum starved 12 h, IL-6 48 h
Procedure: as §1, §4
as §2, with “For this, 5000 cells in 100 μl medium were cultured in triplicate in 96-well plates in the presence or absence of curcumin for 24 h.” left out, “Ill.). […]” for “Ill.).”
as §5

[7] = system: STAT3 phosphorylation; test: IL-6-induced STAT3 phosphorylation in JMAR cells (Western blot); format: cell-based, human; settings: IL-6 10 ng/ml
Procedure: JMAR cells (2×10^6 cells) were treated with IL-6 (10 ng/ml) for the indicated time and whole cell extracts were prepared. These extracts (30 μg) were resolved on 7.5% SDS-PAGE, electrotransferred to a nitrocellulose membrane and probed for p-STAT3 (upper panel) and stripped and re-probed for STAT3 (lower panel). […] JMAR cells were pretreated with curcumin (50 μM) for indicated durations and stimulated with IL-6 (10 ng/ml) for 10 mins and whole cell extract prepared and probed as mentioned earlier.
JMAR cells were treated with IL-6 for different durations and the levels of p-STAT3 and STAT3 were examined. Treatment with IL-6 as early as 5 mins induced STAT3 phosphorylation in JMAR cells (FIG. 14A, upper panel). However, STAT3 levels were unaffected (FIG. 14A, lower panel).
Further, since IL-6 induced STAT3 phosphorylation in JMAR cells, the ability of curcumin to inhibit this STAT3 phosphorylation was also examined. JMAR cells were pretreated with curcumin for different durations and stimulated with IL-6 for 10 minutes. Both the status of p-STAT3 and STAT3 were determined in the whole cell extracts of these cells. Treatment with curcumin for as early as 30 minutes led to decline in the phosphorylation of STAT3 which declined further with increased exposure to curcumin. Exposure to curcumin for 2 hours inhibited STAT3 phosphorylation in JMAR cells (FIG. 14B, upper panel). The STAT3 levels were unaffected by this treatment (FIG. 14B, lower panel).

[8] = system: MM.1R cells; test: IL-6-induced proliferation of MM.1R cells; format: cell-based, human; settings: serum starved 12 h, IL-6 48 h
Procedure: as §1, §4
as §2, with “For this, 5000 cells in 100 μl medium were cultured in triplicate in 96-well plates in the presence or absence of curcumin for 24 h.” left out, “Ill.). […]” for “Ill.).”
as §5

[9] = system: multiple myeloma cells; test: Proliferation of multiple myeloma cells, curcumin vs AG490 (data not shown); format: cell-based, human; settings: 100 μM, 24 hours (data not shown)
[10] = system: STAT3 phosphorylation; test: Constitutive STAT3 phosphorylation in U266 cells (Western blot); format: cell-based, human
[11] = system: STAT3 phosphorylation; test: as above; format: cell-based, human; remark: listed apart in the source
Procedure: U266 cells (2×10^6) were treated with the indicated concentrations of curcumin for 1 h, or treated with 50 μM curcumin for the indicated durations and levels of phosphorylated-STAT3 (upper panel) and STAT3 (lower panel) were examined in whole cell extracts by Western Blotting. […] U266 cells (2×10^6) were treated with 50 μM curcumin for indicated durations, and examined for phosphorylated and nonphosphorylated-STAT3, and STAT5. […] U266 cells (2×10^6) were preincubated with curcumin (50 μM) for indicated durations before treatment with IFN-α (10 ng/ml) for additional 30 min and then examined for phosphorylated and nonphosphorylated-STAT1.
U266 cells (2×10^6 cells) were treated with 50 μM curcumin for the indicated durations (left panels) or treated for 1 h and washed with PBS two times to remove curcumin before resuspending in fresh medium. Cells were removed at indicated times and lysed to prepare the whole cell extract (right panels). Thirty micrograms of whole cell extracts were resolved on 7.5% SDS-PAGE, electrotransferred to a nitrocellulose membrane, probed for the phosphorylated-STAT3 (upper panels) and stripped and reprobed for STAT3 (middle panels) and β-actin (lower panels).
Thirty micrograms of whole-cell extract was resolved on 7.5% SDS-PAGE, electrotransferred to a nitrocellulose membrane, probed for the phospho-STAT3 (upper panel), stripped, and reprobed for STAT3 (middle panel) and β-actin (lower panel).
as §3
Whether curcumin inhibits the constitutive STAT3 phosphorylation in U266 was investigated. U266 cells were incubated either with different concentrations of curcumin for 1 h or with 50 μM curcumin for different times. Curcumin inhibited the constitutively active STAT3 in a dose-(FIG. 1A) and time-(FIG. 1B) dependent manner. Curcumin-induced inhibition could be observed as early as 10 min and with a concentration as low as 10 μM.
Whether curcumin-induced inhibition of STAT3 phosphorylation was reversible was further examined. U266 cells were first treated for 60 min with curcumin, and then the cells were washed twice with PBS to remove curcumin. The cells were then cultured in the fresh medium for various durations, and the levels of phosphorylated STAT3 were measured.
In comparison, treatment of cells with 50 μM curcumin for 60 minutes was sufficient to inhibit STAT3 phosphorylation (see FIGS. 1A and 1B).

[12] = system: STAT3 phosphorylation; test: Constitutive STAT3 phosphorylation in MDA 1986LN cells (Western blot); format: cell-based, human; settings: AG490 100 μM, 8 hrs
Procedure: TU167, MDA 1986LN, TU 686, MDA 686LN and JMAR cells (2×10^6 cells) were lysed and whole cell extracts (30 μg) were resolved on 7.5% SDS-PAGE, electrotransferred to a nitrocellulose membrane and probed for phosphorylated-STAT3 (p-STAT3) and total STAT3 proteins. […] MDA 1986LN cells (2×10^6 cells) were treated with curcumin (50 μM) for indicated durations or with indicated concentrations of curcumin for 1 h and levels of p-STAT3 (upper panels) and STAT3 (lower panels) were examined in whole cell extracts by Western blotting.
MDA 1986LN cells (2×10^6 cells) were treated with curcumin (50 μM) for the indicated durations (upper panels) or treated for 1 h and washed twice with PBS to remove curcumin before re-suspending in fresh medium. Cells were removed at indicated times and lysed to prepare the whole cell extract (lower panels). The whole cell extracts (30 μg) were resolved on 7.5% SDS-PAGE, electrotransferred to a nitrocellulose membrane, probed for the p-STAT3 (upper panels) and striped and reprobed for STAT3 (lower panels).
MDA 1986LN cells (2×10^6 cells) were treated with indicated concentrations of AG490 for 8 h and whole extracts prepared. These whole-cell extracts (30 μg) were resolved on 7.5% SDS-PAGE, electrotransferred to a nitrocellulose membrane, probed for p-STAT3 (upper panel), striped and reprobed for STAT3 (middle panel) and β-actin (lower panel). […] The cells were treated with AG490 (100 μM) for the indicated durations and whole cell extracts prepared and analyzed as mentioned earlier. FIG. 15C compares the effect of curcumin and AG490 on proliferation of MDA 1986LN cells by MTT assay.
Since STAT3 was constitutively phosphorylated in MDA 1986LN cells, the ability of curcumin to inhibit the constitutive STAT3 phosphorylation was examined. MDA 1986LN cells were treated either with curcumin (50 μM) for different durations or with different concentrations of curcumin for 1 h and the p-STAT3 levels and STAT3 levels were determined. Curcumin inhibited the constitutively active STAT3 in a time-(FIG. 11B) and a dose-(FIG. 11C) manner. This curcumin-induced inhibition could be observed as early as 30 min and with a concentration as low as 25 μM.
MDA 1986LN cells were treated with curcumin for indicated times or for 1 h and the cells were washed twice with PBS to remove curcumin. The cells were then cultured in media for various durations and the levels of phosphorylated STAT3 were determined. […] However, the STAT3 levels were unaffected by curcumin treatment.
The concentration and the exposure time for AG490 to inhibit STAT3 phosphorylation in MDA 1986LN cells were determined. These cells were incubated with either different concentrations of AG490 or with 100 μM of AG490 for different durations and the levels of p-STAT3 and STAT3 were assessed.

| Compound | proliferation response of RPMI 8226 cells to IL-6 [1] | induction of STAT3 phosphorylation [2] | proliferation of MM.1 cells induced by IL-6 [3] | earliest time of IL-6-induced phosphorylation of STAT3 [4] [min] | time at which IL-6-induced STAT3 phosphorylation began to decline [4] [min] | proliferation of human HNSCC cells induced by IL-6 [5] | proliferation of U266 cells induced by IL-6 [6] | earliest time of IL-6-induced STAT3 phosphorylation [7] [min] | proliferation of MM.1R cells induced by IL-6 [8] | proliferation of multiple myeloma cells [9] | exposure needed to completely inhibit STAT3 phosphorylation ([10]; 100 μM AG490) [h] | dose needed to completely inhibit STAT3 phosphorylation ([10]; 8 h) [µM] | dose needed to suppress STAT3 phosphorylation (comparison AG490 vs curcumin) [11] [µM] | inhibition of STAT3 phosphorylation [12] |
| --- | --- | --- | --- | --- | --- | --- | --- | --- | --- | --- | --- | --- | --- | --- |
| IL-6: bacteria-derived recombinant human IL-6 provided by Sandoz Pharmaceutical | did not respond | induced STAT3 phosphorylation in both cell lines | induced proliferation | 5 | 60 | induced proliferation of MDA 1986LN, JMAR and MDA 686LN cells | induced proliferation | 5 | induced proliferation | – | – | – | – | – |
| N#C/C(=C/c1ccc(O)c(O)c1)C(=O)NCc1ccccc1 [AG490] | – | – | – | – | – | – | – | – | – | no effect | 8 | 100 | 100 | completely inhibited |
